ChEMBL document CHEMBL1201862, “PubChem BioAssay data set” (2004)
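Five compound concentrations were applied to cells in 96-well plates for 48 hours; endpoints were derived by simple linear interpolation of the resulting dose-response curve. Abbreviation: GI50, concentration required for 50% inhibition of growth.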 Calls of active or inactive are those of the source. Cut-off read from the data, not from the text of the source: active = GI50 up to about 1.1 µM and inactive = higher.

Tests used:
Assay in all cases: NCI anticancer screen, dose series, 48 h
SF-295 = test system: SF-295
LOX IMVI = test system: LOX IMVI
HT-29 = test system: HT-29
SF-268 = test system: SF-268
UACC-257 = test system: UACC-257
HCC 2998 = test system: HCC 2998
COLO 205 = test system: COLO 205
NCI-H23 = test system: NCI-H23
HOP-92 = test system: HOP-92
CCRF-CEM = test system: CCRF-CEM
OVCAR-4 = test system: OVCAR-4
SK-MEL-28 = test system: SK-MEL-28
SNB-75 = test system: SNB-75
SNB-19 = test system: SNB-19
Malme-3M = test system: Malme-3M

| Compound | GI50 (SF-295) | GI50 (LOX IMVI) | GI50 (HT-29) | GI50 (SF-268) | GI50 (UACC-257) | GI50 (HCC 2998) | GI50 (COLO 205) | GI50 (NCI-H23) | GI50 (HOP-92) | GI50 (CCRF-CEM) | GI50 (OVCAR-4) | GI50 (SK-MEL-28) | GI50 (SNB-75) | GI50 (SNB-19) | GI50 (Malme-3M) |
| --- | --- | --- | --- | --- | --- | --- | --- | --- | --- | --- | --- | --- | --- | --- | --- |
| CCCOP1(=O)C=C(C)C(Cl)=C(C)C1 (centres undefined) | 25.2 µM (inactive) | 13.3 µM (inactive) | 22.1 µM (inactive) | 14.6 µM (inactive) | 17.7 µM (inactive) | 54.7 µM (inactive) | 11.2 µM (inactive) | 16.9 µM (inactive) | 18.4 µM (inactive) | 15 µM (inactive) | 26.9 µM (inactive) | 18.3 µM (inactive) | 22.6 µM (inactive) | > 100 µM (inactive) | – |
| O=c1cc(CO)oc2c3c(cc(O)c12)OCC(COC1OC(CO)C(O)C(O)C1O)=CC3 (centres undefined) | > 100 µM (inactive) | > 100 µM (inactive) | > 100 µM (inactive) | > 100 µM (inactive) | > 100 µM (inactive) | > 100 µM (inactive) | > 100 µM (inactive) | > 100 µM (inactive) | > 100 µM (inactive) | > 100 µM (inactive) | > 100 µM (inactive) | > 100 µM (inactive) | > 100 µM (inactive) | > 100 µM (inactive) | – |
| COc1cc2c(cc1O)C1C(O)C(O)C=C3CCN(C2)C31 (centres undefined) | 2.31 µM (inactive) | 0.76 µM (active) | 3.17 µM (inactive) | 2.2 µM (inactive) | 2.67 µM (inactive) | 2.4 µM (inactive) | 1.44 µM (inactive) | 2.13 µM (inactive) | 1.16 µM (inactive) | 3.65 µM (inactive) | 1.38 µM (inactive) | 2.76 µM (inactive) | 2.65 µM (inactive) | 1.39 µM (inactive) | 0.587 µM (active) |
| c1ccc2c(c1)[nH]c1c[nH]c3c4cccnc4nc-3c12 | 23.4 µM (inactive) | 19.5 µM (inactive) | 19.3 µM (inactive) | 19.7 µM (inactive) | 23.9 µM (inactive) | 19 µM (inactive) | 15 µM (inactive) | 25.5 µM (inactive) | 28.2 µM (inactive) | 24.7 µM (inactive) | 18.2 µM (inactive) | 21.2 µM (inactive) | 18.2 µM (inactive) | 18.3 µM (inactive) | 25.6 µM (inactive) |
| CC(=O)O[C@H]1C(=O)[C@@]2(C)C([C@H](OC(=O)c3ccccc3)[C@]3(O)C[C@H](OC(=O)[C@H](O)[C@H](NC(=O)c4ccccc4)c4ccc(Cl)cc4)C(C)=C1C3(C)C)C1(OC(C)=O)CO[C@@H]1C[C@@H]2O (some centres undefined) | 0.0194 µM (active) | < 0.0001 µM (active) | 0.000106 µM (active) | 0.00156 µM (active) | 0.00425 µM (active) | 0.000813 µM (active) | 0.00188 µM (active) | 0.00104 µM (active) | – | 0.00188 µM (active) | 0.889 µM (active) | 0.00157 µM (active) | < 0.0001 µM (active) | 0.0304 µM (active) | 0.00239 µM (active) |
| CC1=C(C(=O)Nc2ccccc2)C(c2ccc(C(C)C)cc2)C(C(=O)Nc2ccccc2)=C(C)N1 | 37.9 µM (inactive) | 15 µM (inactive) | 15.2 µM (inactive) | 22.3 µM (inactive) | – | 7.19 µM (inactive) | 12.9 µM (inactive) | 20 µM (inactive) | 14.2 µM (inactive) | 13.3 µM (inactive) | 28.5 µM (inactive) | 22.3 µM (inactive) | 18.7 µM (inactive) | 29.4 µM (inactive) | 15.5 µM (inactive) |
| OCCNCCOc1ccc(/C(=C(/Cl)c2ccccc2)c2ccccc2)cc1 | 15.2 µM (inactive) | 3.49 µM (inactive) | 1.11 µM (active) | – | 2.21 µM (inactive) | – | 3.56 µM (inactive) | 14.7 µM (inactive) | – | 1.92 µM (inactive) | 16.5 µM (inactive) | 1.14 µM (inactive) | 2.37 µM (inactive) | 13.9 µM (inactive) | 0.246 µM (active) |
| CC1(C)c2ccccc2N2C(c3ccccc3)=NOC21C (centres undefined) | > 100 µM (inactive) | > 100 µM (inactive) | > 100 µM (inactive) | > 100 µM (inactive) | > 100 µM (inactive) | – | > 100 µM (inactive) | > 100 µM (inactive) | > 100 µM (inactive) | > 100 µM (inactive) | > 100 µM (inactive) | > 100 µM (inactive) | > 100 µM (inactive) | > 100 µM (inactive) | > 100 µM (inactive) |
| NC(=S)N/N=C1\C(=O)N(CCc2ccccc2)C(=O)C1C(=O)NCCc1ccccc1 (centres undefined) | > 100 µM (inactive) | > 100 µM (inactive) | > 100 µM (inactive) | > 100 µM (inactive) | > 100 µM (inactive) | > 100 µM (inactive) | > 100 µM (inactive) | > 100 µM (inactive) | > 100 µM (inactive) | – | > 100 µM (inactive) | > 100 µM (inactive) | 20.7 µM (inactive) | > 100 µM (inactive) | > 100 µM (inactive) |
| O=c1c2ccccc2c2nc3ccccc3nc2n1C1CCCCC1 | 95.3 µM (inactive) | – | > 100 µM (inactive) | > 100 µM (inactive) | > 100 µM (inactive) | > 100 µM (inactive) | > 100 µM (inactive) | > 100 µM (inactive) | – | – | 32.9 µM (inactive) | > 100 µM (inactive) | 51.9 µM (inactive) | > 100 µM (inactive) | > 100 µM (inactive) |
| CC(C)N(CCn1c2c3ccccc3ccc2c2oc(=O)c3ccccc3c21)C(C)C | > 52.2 µM (inactive) | > 100 µM (inactive) | > 100 µM (inactive) | > 69.7 µM (inactive) | > 54.8 µM (inactive) | – | > 100 µM (inactive) | > 100 µM (inactive) | > 54.3 µM (inactive) | > 100 µM (inactive) | > 100 µM (inactive) | > 100 µM (inactive) | 25.2 µM (inactive) | 65.8 µM (inactive) | > 100 µM (inactive) |
| CCOC(=O)CN(c1ccccc1)c1nc(=[N+](C)C)ss1 | – | – | – | 45.2 µM (inactive) | 24.3 µM (inactive) | 41.1 µM (inactive) | 2.06 µM (inactive) | – | – | 0.979 µM (active) | 17.7 µM (inactive) | 26.4 µM (inactive) | 29 µM (inactive) | 61.9 µM (inactive) | 21.2 µM (inactive) |
| CN(CC1NCCCC1O)C12CC3CC(CC(C3)C1)C2 (centres undefined) | > 100 µM (inactive) | > 100 µM (inactive) | > 100 µM (inactive) | > 100 µM (inactive) | > 100 µM (inactive) | > 100 µM (inactive) | > 100 µM (inactive) | > 100 µM (inactive) | > 100 µM (inactive) | > 100 µM (inactive) | > 100 µM (inactive) | – | – | > 100 µM (inactive) | > 100 µM (inactive) |
| CC(CCc1ccc2c(c1)c(N)c1ccc(N)cc1[n+]2[O-])CC(C)(C)C (centres undefined) | 1.76 µM (inactive) | 1.52 µM (inactive) | 1.22 µM (inactive) | 2.2 µM (inactive) | 1.99 µM (inactive) | 1.55 µM (inactive) | 1.45 µM (inactive) | 1.31 µM (inactive) | – | 0.542 µM (active) | 2.05 µM (inactive) | 2.06 µM (inactive) | 2.07 µM (inactive) | – | 1.87 µM (inactive) |
| COc1cc(Cl)c2c3c(c(C(=O)c4ccccc4)oc13)CCC2 | > 100 µM (inactive) | > 100 µM (inactive) | > 100 µM (inactive) | – | > 100 µM (inactive) | > 100 µM (inactive) | > 100 µM (inactive) | > 100 µM (inactive) | < 0.01 µM (active) | > 100 µM (inactive) | > 100 µM (inactive) | > 100 µM (inactive) | > 100 µM (inactive) | > 100 µM (inactive) | – |
| COC(=O)C1=C(C(=O)OC)C2(c3ccccc3)OC1(c1ccccc1)c1cc3ccccc3cc12 | 6.28 µM (inactive) | 1.32 µM (inactive) | 1.77 µM (inactive) | 1.73 µM (inactive) | – | 1.95 µM (inactive) | 2.11 µM (inactive) | 1.92 µM (inactive) | 1.09 µM (active) | 0.451 µM (active) | 1.7 µM (inactive) | 1.87 µM (inactive) | 0.604 µM (active) | 4.2 µM (inactive) | 1.6 µM (inactive) |
| CCc1ccccc1NC(=O)CC1NC(=O)CS1 (centres undefined) | > 100 µM (inactive) | > 100 µM (inactive) | – | > 100 µM (inactive) | > 100 µM (inactive) | > 100 µM (inactive) | > 100 µM (inactive) | > 100 µM (inactive) | > 100 µM (inactive) | > 100 µM (inactive) | > 100 µM (inactive) | > 100 µM (inactive) | 37.5 µM (inactive) | > 100 µM (inactive) | 55.2 µM (inactive) |
| c1ccc(C(c2ccccc2)c2ccccn2)cc1 | > 100 µM (inactive) | > 100 µM (inactive) | > 100 µM (inactive) | > 100 µM (inactive) | > 100 µM (inactive) | > 100 µM (inactive) | > 100 µM (inactive) | > 100 µM (inactive) | – | > 100 µM (inactive) | > 100 µM (inactive) | > 100 µM (inactive) | 52.5 µM (inactive) | > 100 µM (inactive) | > 100 µM (inactive) |
| Cc1c2n(c(=O)[nH]c1=O)C1OC(CO)C(N=[N+]=[N-])C1O2 (centres undefined) | > 100 µM (inactive) | > 100 µM (inactive) | > 100 µM (inactive) | > 100 µM (inactive) | > 100 µM (inactive) | – | > 100 µM (inactive) | > 100 µM (inactive) | 49.5 µM (inactive) | > 100 µM (inactive) | > 100 µM (inactive) | > 100 µM (inactive) | > 100 µM (inactive) | > 100 µM (inactive) | – |
| COC(=O)c1c(N)n[nH]c1N | > 100 µM (inactive) | > 100 µM (inactive) | – | > 100 µM (inactive) | > 100 µM (inactive) | > 100 µM (inactive) | > 100 µM (inactive) | > 100 µM (inactive) | > 100 µM (inactive) | > 100 µM (inactive) | > 100 µM (inactive) | > 100 µM (inactive) | > 100 µM (inactive) | > 100 µM (inactive) | – |
